From ChEMBL document CHEMBL4414609, “High-Affinity Alkynyl Bisubstrate Inhibitors of Nicotinamide N-Methyltransferase (NNMT)” (J Med Chem, 2019)

Columns and labels:
[1] = target: T1, Nicotinamide N-methyltransferase (Homo sapiens, UniProt P40261); assay: Inhibition of N-terminal His6-tagged wild type human NNMT expressed in Escherichia coli NiCo21(DE3) assessed as reduction in 1-methylquinolinium level using quinoline as substrate in presence of SAM and measured every 27 seconds for 5.5 mins by fluorescence-based assay
T1 sequence (P40261 whole entry): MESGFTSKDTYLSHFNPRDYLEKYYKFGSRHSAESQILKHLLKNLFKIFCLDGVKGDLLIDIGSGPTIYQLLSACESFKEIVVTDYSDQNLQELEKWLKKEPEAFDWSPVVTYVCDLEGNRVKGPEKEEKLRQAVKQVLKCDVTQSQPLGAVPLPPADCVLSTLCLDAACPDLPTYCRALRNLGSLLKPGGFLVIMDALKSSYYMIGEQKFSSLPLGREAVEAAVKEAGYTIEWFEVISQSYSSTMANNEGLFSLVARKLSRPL

[2] = target: T2, PNMT (phenylethanolamine N-methyltransferase) (Homo sapiens, UniProt P11086); assay: Inhibition of human PNMT expressed in Escherichia coli at 10 uM assessed as reduction in SAH level using DL-normetanephrine as substrate in presence of SAM incubated for 45 mins by LC-MS/MS analysis relative to control; conditions: recombinant human PNMT expressed in Escherichia coli, probe DL-normetanephrine
T2 sequence (P11086 whole entry): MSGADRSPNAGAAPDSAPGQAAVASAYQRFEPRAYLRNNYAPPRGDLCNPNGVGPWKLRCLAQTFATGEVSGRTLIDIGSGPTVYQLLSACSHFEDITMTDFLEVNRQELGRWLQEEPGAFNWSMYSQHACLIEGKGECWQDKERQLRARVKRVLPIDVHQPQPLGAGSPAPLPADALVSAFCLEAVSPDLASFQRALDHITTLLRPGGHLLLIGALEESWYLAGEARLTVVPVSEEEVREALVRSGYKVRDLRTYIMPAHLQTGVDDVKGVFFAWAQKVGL

[3] = target: T3, GNMT (glycine N-methyltransferase) (Homo sapiens, UniProt Q14749); assay: Inhibition of human GNMT expressed in Escherichia coli at 1 uM assessed as reduction in SAH level using glycine as substrate in presence of SAM incubated for 30 mins by LC-MS/MS analysis relative to control; conditions: recombinant human GNMT expressed in Escherichia coli, probe glycine
T3 sequence (Q14749 whole entry): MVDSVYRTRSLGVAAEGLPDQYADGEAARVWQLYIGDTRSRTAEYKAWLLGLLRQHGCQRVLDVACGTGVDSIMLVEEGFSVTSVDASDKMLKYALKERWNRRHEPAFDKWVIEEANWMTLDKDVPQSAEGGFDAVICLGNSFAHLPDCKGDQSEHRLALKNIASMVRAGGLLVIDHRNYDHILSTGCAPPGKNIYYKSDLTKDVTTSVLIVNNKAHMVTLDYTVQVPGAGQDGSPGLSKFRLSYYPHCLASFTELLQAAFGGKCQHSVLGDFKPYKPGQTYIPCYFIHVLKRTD

[4] = target: HNMT (histamine N-methyltransferase) (Homo sapiens, UniProt P50135); assay: Inhibition of human HNMT expressed in Escherichia coli at 1 uM assessed as reduction in SAH level using histamine as substrate in presence of SAM incubated for 15 mins by LC-MS/MS analysis relative to control; conditions: recombinant human HNMT expressed in Escherichia coli, probe histamine
[5] = target: T4, Histone-lysine N-methyltransferase EHMT1 (Homo sapiens, UniProt Q9H9B1); assay: Inhibition of human EHMT1 expressed in Escherichia coli assessed as reduction in methylated histone H3 full length using histone H3 full length as substrate in presence of [3H] SAM incubated for 120 mins by scintillation counting
T4 sequence (Q9H9B1 whole entry): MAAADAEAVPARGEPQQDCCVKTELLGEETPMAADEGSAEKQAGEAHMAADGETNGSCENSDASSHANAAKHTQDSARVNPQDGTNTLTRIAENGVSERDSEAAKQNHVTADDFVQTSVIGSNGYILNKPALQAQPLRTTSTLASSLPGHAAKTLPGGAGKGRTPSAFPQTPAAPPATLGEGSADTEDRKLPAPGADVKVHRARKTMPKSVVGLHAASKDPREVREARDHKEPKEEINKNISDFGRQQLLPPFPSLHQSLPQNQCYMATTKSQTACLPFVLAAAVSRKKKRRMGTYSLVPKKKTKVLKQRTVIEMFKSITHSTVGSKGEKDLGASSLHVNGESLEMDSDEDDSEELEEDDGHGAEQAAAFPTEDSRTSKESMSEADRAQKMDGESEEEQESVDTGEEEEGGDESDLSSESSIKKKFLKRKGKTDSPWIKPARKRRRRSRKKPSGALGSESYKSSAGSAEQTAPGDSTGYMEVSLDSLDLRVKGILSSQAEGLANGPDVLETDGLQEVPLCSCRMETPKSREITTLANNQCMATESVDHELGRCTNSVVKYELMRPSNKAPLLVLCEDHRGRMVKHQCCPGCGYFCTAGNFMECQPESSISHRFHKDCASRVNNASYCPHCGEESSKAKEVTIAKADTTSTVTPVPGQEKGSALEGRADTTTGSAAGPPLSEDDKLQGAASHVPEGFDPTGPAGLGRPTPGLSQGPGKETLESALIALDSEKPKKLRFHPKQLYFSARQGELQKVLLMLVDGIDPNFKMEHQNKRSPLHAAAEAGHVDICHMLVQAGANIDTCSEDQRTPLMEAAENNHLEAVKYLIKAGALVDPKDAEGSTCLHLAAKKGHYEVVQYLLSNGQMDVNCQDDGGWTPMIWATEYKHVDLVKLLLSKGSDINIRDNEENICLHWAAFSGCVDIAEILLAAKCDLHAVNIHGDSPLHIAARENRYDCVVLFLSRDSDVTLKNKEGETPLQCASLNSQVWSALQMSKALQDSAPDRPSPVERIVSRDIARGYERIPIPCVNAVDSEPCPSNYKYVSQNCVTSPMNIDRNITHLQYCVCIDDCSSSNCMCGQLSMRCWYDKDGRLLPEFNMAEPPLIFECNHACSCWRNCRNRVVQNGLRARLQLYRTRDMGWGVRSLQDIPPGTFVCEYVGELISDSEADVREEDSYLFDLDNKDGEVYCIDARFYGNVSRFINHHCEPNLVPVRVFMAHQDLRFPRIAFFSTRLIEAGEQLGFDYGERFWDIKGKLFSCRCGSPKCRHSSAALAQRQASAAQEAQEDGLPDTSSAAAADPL

[6] = target: Histone-lysine N-methyltransferase ASH1L (Homo sapiens, UniProt Q9NR48); assay: Inhibition of human ASH1L expressed in Escherichia coli assessed as reduction in methylated polynucleosome level using polynucleosome as substrate in presence of [3H] SAM incubated for 15 mins by scintillation counting

Sequence of HNMT (histamine N-methyltransferase) (P50135 whole entry): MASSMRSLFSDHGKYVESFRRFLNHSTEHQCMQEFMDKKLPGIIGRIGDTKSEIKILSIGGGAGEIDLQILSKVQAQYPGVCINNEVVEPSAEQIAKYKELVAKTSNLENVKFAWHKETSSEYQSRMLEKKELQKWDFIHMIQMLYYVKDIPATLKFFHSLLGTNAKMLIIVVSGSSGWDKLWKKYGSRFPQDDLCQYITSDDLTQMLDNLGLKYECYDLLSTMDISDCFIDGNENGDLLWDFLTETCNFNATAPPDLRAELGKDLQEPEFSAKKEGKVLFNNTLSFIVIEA

## NC(=O)c1cccc(C#C[C@@H](CC[C@H](N)C(=O)O)C[C@H]2O[C@@H](n3cnc4c(N)ncnc43)[C@H](O)[C@@H]2O)c1
[1]; read-out: Ki
  Ki: 0.5 nM
[1]; read-out: pKi (converted)
  Ki: 0.501 nM
[2]
  inhibition at 0.75 h, 10 µM: 26%
[3]
  inhibition at 0.5 h, 1 µM: 4%
[4]
  inhibition at 0.25 h, 1 µM: 6%
[5]
  IC50: > 10000 nM
[6]
  IC50: > 10000 nM
